According to patent US20260271931A1, “HERBICIDAL MIXTURES” (Bayer Aktiengesellschaft, priority 2023, published 2026):
Like-named read-outs stand apart in the source and are kept apart here.

Legend:
Format in all cases: in vivo
[1] = system: Avena fatua (AVEFA); assay: Post-emergence action against weeds, greenhouse pot test, visual rating: Avena fatua; conditions: for pest or weed control at 4 g/ha: 4 g a.i./ha
[2] = system: Bidens pilosa (BIDPI); assay: Post-emergence action against weeds, greenhouse pot test, visual rating: Bidens pilosa
[3] = system: Centaurea cyanus (CENCY); assay: Post-emergence action against weeds, greenhouse pot test, visual rating: Centaurea cyanus
Experimental: (§1) When the observed efficacies already exceed the formal sum total of the values of the tests with individual applications, they also exceed the expected value according to Colby, which is calculated using the formula below and is likewise regarded as an indication of synergism (cf. S. R. Colby; in Weeds 15 (1967) pp. 20 to 22):
(§2) where: • A=efficacy of the active ingredient (A) in % at an application rate of a [g a.i./ha]; • B=efficacy of the active ingredient (B) in % at an application rate of b [g a.i./ha]; • E^C=expected value of the effect of the combination (A)+(B) in % at the combined application rate a+b [g a.i./ha].
(§3) The observed values (E^A) from the experiments, given suitable low dosages, show an effect of the combinations exceeding the expected values according to Colby (E^C) (Δ).
(§4) Seeds of mono- and dicotyledonous weeds were placed in sandy loam in pots, covered with soil and grown in a greenhouse under good growth conditions (temperature, air humidity, water supply). Two to three weeks after sowing, the test plants were treated at the two- to four-leaf stage with the compositions of the invention. The compositions of the invention, formulated as spray powders or as emulsion concentrates, were sprayed onto the green parts of the plant in various dosages with an application rate equivalent to […] of water. After the test plants had been kept in the greenhouse under optimum growth conditions for 3 weeks, the activity of the preparations was rated visually in comparison to untreated controls.
(§5) 100% efficacy means complete control of the particular weed tested.
(§6) 0% efficacy means zero control of the particular weed tested.
(§7) Expected values according to Colby are reported under E.
(§8) The exceedance of the expected value E is given as Δ (=synergistic effect).
(§9) The rating period is reported in days after application (DAT).

[4] = system: Echinochloa crus-galli (ECHCG); assay: Post-emergence action against weeds, greenhouse pot test, visual rating: Echinochloa crus-galli
[5] = system: Eleusine indica (ELEIN); assay: Post-emergence action against weeds, greenhouse pot test, visual rating: Eleusine indica; conditions: for pest or weed control at 15 g/ha: 15 g a.i./ha
Experimental: as §1, §2, §3, §4, §5, §6, §7, §8, §9

[6] = system: Kochia scoparia (KCHSC); assay: Post-emergence action against weeds, greenhouse pot test, visual rating: Kochia scoparia
[7] = system: Lolium rigidum (LOLRI); assay: Post-emergence action against weeds, greenhouse pot test, visual rating: Lolium rigidum
[8] = system: Sorghum halepense (SORHA); assay: Post-emergence action against weeds, greenhouse pot test, visual rating: Sorghum halepense
Experimental: as §1, §2, §3, §4, §5, §6, §7, §8, §9

[9] = system: Pharbitis purpurea (PHBPU); assay: Post-emergence action against weeds, greenhouse pot test, visual rating: Pharbitis purpurea; conditions: 21 DAT
Experimental: as §1, §2, §3, §4, §5, §6, §7, §8, §9

[10] = system: Brachiaria platyfylla (BRAPP); assay: Post-emergence action against weeds, greenhouse pot test, visual rating: Brachiaria platyfylla
Experimental: as §1, §2, §3, §4, §5, §6, §7, §8, §9

[11] = Avena fatua, 240 h, 10 DAT, read-out: Herbicidal effect [%] on AVEFA 10 DAT
[12] = Eleusine indica, post-emergence, 240 h, read-out: Herbicidal effect [%] on ELEIN 10 DAT
[13] = Eleusine indica, post-emergence, 504 h, read-out: Herbicidal effect [%] on ELEIN 21 DAT

Cc1ccc2c(c1)[C@H](Nc1nc(N)nc(C(C)F)n1)[C@@H](C)C2 (stereo partly shown) [Indaziflam, indaziflam]
Herbicidal effect [%] on AVEFA 10 DAT ([1]; 10 DAT, 3 g a.i./ha): 0%
Herbicidal effect [%] on BIDPI 21 DAT ([2]; 3 g a.i./ha): 30%
Herbicidal effect [%] on CENCY 10 DAT ([3]; 3 g a.i./ha): 20%
Herbicidal effect [%] on CENCY 21 DAT ([3]; 3 g a.i./ha): 10%
Herbicidal effect [%] on ECHCG 10 DAT ([4]; 3 g a.i./ha): 0%
Herbicidal effect [%] on ELEIN 21 DAT ([5]; 3 g a.i./ha): 10%
Herbicidal effect [%] on KCHSC 10 DAT ([6]; 3 g a.i./ha): 10%
Herbicidal effect [%] on KCHSC 21 DAT ([6]; 3 g a.i./ha): 20%
Herbicidal effect [%] on LOLRI 21 DAT ([7]; 3 g a.i./ha, 21 DAT): 0%
Herbicidal effect [%] on SORHA 21 DAT ([8]; 3 g a.i./ha): 10%

CS(=O)(=O)c1cc(C(F)(F)F)ccc1C(=O)c1cnoc1C1CC1 [Isoxaflutole, isoxaflutole]
pest or weed control at 4 g/ha [1, 11]: 30%
Herbicidal effect [%] on BIDPI 21 DAT ([2]; 4 g a.i./ha): 40%
Herbicidal effect [%] on ECHCG 10 DAT ([4]; 4 g a.i./ha): 60%
Herbicidal effect [%] on ECHCG 21 DAT ([4]; 4 g a.i./ha): 40%
pest or weed control at 4 g/ha ([6]; Bassia scoparia, post-emergence, 504 h, 4 g a.i./ha, read-out: Herbicidal effect [%] on KCHSC 21 DAT): 30%
Herbicidal effect [%] on PHBPU 21 DAT ([9]; 4 g a.i./ha): 10%

CS(=O)(=O)c1ccc(C(=O)C2C(=O)CCCC2=O)c([N+](=O)[O-])c1 [Mesotrione, mesotrione]
pest or weed control at 4 g/ha [1, 11]: 10%
pest or weed control at 4 g/ha ([10]; post-emergence, 504 h, 4 g a.i./ha, read-out: Herbicidal effect [%] on BRAPP 21 DAT): 0%
Herbicidal effect [%] on CENCY 21 DAT ([3]; 4 g a.i./ha): 40%
pest or weed control at 4 g/ha ([5]; Eleusine indica, post-emergence, 504 h, 4 g a.i./ha, read-out: Herbicidal effect [%] on ELEIN 21 DAT): 10%
Herbicidal effect [%] on KCHSC 10 DAT ([6]; 4 g a.i./ha): 30%
pest or weed control at 4 g/ha ([7]; Lolium rigidum, 504 h, 4 g a.i./ha, 21 DAT, read-out: Herbicidal effect [%] on LOLRI 21 DAT): 0%

C[n+]1ccc(-c2cc[n+](C)cc2)cc1 [Paraquat, paraquat]
pest or weed control at 40 g/ha [5, 12]: 40%
pest or weed control at 40 g/ha [5, 13]: 10%
pest or weed control at 40 g/ha ([7]; Lolium rigidum, 504 h, read-out: Herbicidal effect [%] on LOLRI 21 DAT): 10%

Cn1nc(C(F)(F)F)c(CS(=O)(=O)C2=NOC(C)(C)C2)c1OC(F)F [Pyroxasulfone, pyroxasulfone]
pest or weed control at 15 g/ha ([10]; post-emergence, 240 h, 15 g a.i./ha, read-out: Herbicidal effect [%] on BRAPP 10 DAT): 20%
pest or weed control at 15 g/ha [5, 12]: 10%
pest or weed control at 15 g/ha [5, 13]: 60%
pest or weed control at 15 g/ha ([6]; Bassia scoparia, post-emergence, 504 h, 15 g a.i./ha, read-out: Herbicidal effect [%] on KCHSC 21 DAT): 0%

CCS(=O)(=O)c1cccnc1S(=O)(=O)NC(=O)Nc1nc(OC)cc(OC)n1 [Rimsulfuron, rimsulfuron]
Herbicidal effect [%] on AVEFA 21 DAT ([1]; 0.9 g a.i./ha): 50%
pest or weed control at 0.9 g/ha ([1]; Avena fatua, 240 h, 10 DAT, 0.9 g a.i./ha, read-out: Herbicidal effect [%] on AVEFA 10 DAT): 60%
Herbicidal effect [%] on ECHCG 21 DAT ([4]; 0.9 g a.i./ha): 90%
pest or weed control at 0.9 g/ha ([5]; Eleusine indica, post-emergence, 504 h, 0.9 g a.i./ha, read-out: Herbicidal effect [%] on ELEIN 21 DAT): 40%
Herbicidal effect [%] on PHBPU 21 DAT ([9]; 0.9 g a.i./ha): 10%

CCc1cccc(C)c1N(C(=O)CCl)[C@@H](C)COC [S-Metolachlor, S-metolachlor]
Herbicidal effect [%] on AVEFA 10 DAT ([1]; 10 DAT, 50 g a.i./ha): 10%
Herbicidal effect [%] on BIDPI 21 DAT ([2]; 50 g a.i./ha): 20%
Herbicidal effect [%] on BRAPP 10 DAT ([10]; 50 g a.i./ha): 30%
Herbicidal effect [%] on BRAPP 21 DAT ([10]; 50 g a.i./ha): 30%
Herbicidal effect [%] on CENCY 10 DAT ([3]; 50 g a.i./ha): 0%
Herbicidal effect [%] on CENCY 21 DAT ([3]; 50 g a.i./ha): 10%
Herbicidal effect [%] on ECHCG 21 DAT ([4]; 50 g a.i./ha): 30%
Herbicidal effect [%] on ELEIN 10 DAT ([5]; 50 g a.i./ha): 10%
Herbicidal effect [%] on ELEIN 21 DAT ([5]; 50 g a.i./ha): 10%
Herbicidal effect [%] on KCHSC 21 DAT ([6]; 50 g a.i./ha): 10%
Herbicidal effect [%] on LOLRI 21 DAT ([7]; 50 g a.i./ha, 21 DAT): 0%
Herbicidal effect [%] on PHBPU 21 DAT ([9]; 50 g a.i./ha): 10%
Herbicidal effect [%] on SORHA 10 DAT ([8]; 50 g a.i./ha, 10 DAT): 10%
Herbicidal effect [%] on SORHA 21 DAT ([8]; 50 g a.i./ha): 10%

CCNc1nc(Cl)nc(NC(C)(C)C)n1 [Terbuthylazine, terbuthylazine]
pest or weed control at 50 g/ha ([10]; post-emergence, 240 h, 50 g a.i./ha, read-out: Herbicidal effect [%] on BRAPP 10 DAT): 10%
Herbicidal effect [%] on ECHCG 10 DAT ([4]; 50 g a.i./ha): 10%
Herbicidal effect [%] on ECHCG 21 DAT ([4]; 50 g a.i./ha): 0%
pest or weed control at 50 g/ha ([5]; Eleusine indica, post-emergence, 240 h, 50 g a.i./ha, read-out: Herbicidal effect [%] on ELEIN 10 DAT): 85%
pest or weed control at 50 g/ha ([5]; Eleusine indica, post-emergence, 504 h, 50 g a.i./ha, read-out: Herbicidal effect [%] on ELEIN 21 DAT): 70%
pest or weed control at 50 g/ha ([7]; Lolium rigidum, 504 h, 50 g a.i./ha, 21 DAT, read-out: Herbicidal effect [%] on LOLRI 21 DAT): 0%

COC(=O)c1csc(C)c1S(=O)(=O)NC(=O)n1nc(OC)n(C)c1=O [Thiencarbazone-methyl]
Herbicidal effect [%] on AVEFA 21 DAT ([1]; 0.33 g a.i./ha): 88%
Herbicidal effect [%] on CENCY 21 DAT ([3]; 0.33 g a.i./ha): 40%
Herbicidal effect [%] on LOLRI 21 DAT ([7]; 0.33 g a.i./ha, 21 DAT): 88%
Herbicidal effect [%] on PHBPU 21 DAT ([9]; 0.33 g a.i./ha): 40%

bicyclopyrone
Herbicidal effect [%] on BIDPI 21 DAT ([2]; 3 g a.i./ha): 10%
Herbicidal effect [%] on CENCY 10 DAT ([3]; 3 g a.i./ha): 50%
Herbicidal effect [%] on ELEIN 21 DAT ([5]; 3 g a.i./ha): 30%
